# Reference: PMC8041433 (Environmental Health Perspectives, 2021)
# Several values for one entry are separate records, joined by “and”; a condition that tells them apart may be missing. Equal entries are not always repeated. Structures can show the parent of a compound that is named as a salt. Where two headings read alike, the source gives them in different places.
# Experiments:
# recombinant human AChE [1] = molecular target: T1, recombinant human AChE (Homo sapiens, UniProt P22303); for IR or R: key: Reversible (R); Irreversible (IR); ND, not detected in enzyme-based AChE inhibition assay from current study
# T1 sequence (P22303 32-614): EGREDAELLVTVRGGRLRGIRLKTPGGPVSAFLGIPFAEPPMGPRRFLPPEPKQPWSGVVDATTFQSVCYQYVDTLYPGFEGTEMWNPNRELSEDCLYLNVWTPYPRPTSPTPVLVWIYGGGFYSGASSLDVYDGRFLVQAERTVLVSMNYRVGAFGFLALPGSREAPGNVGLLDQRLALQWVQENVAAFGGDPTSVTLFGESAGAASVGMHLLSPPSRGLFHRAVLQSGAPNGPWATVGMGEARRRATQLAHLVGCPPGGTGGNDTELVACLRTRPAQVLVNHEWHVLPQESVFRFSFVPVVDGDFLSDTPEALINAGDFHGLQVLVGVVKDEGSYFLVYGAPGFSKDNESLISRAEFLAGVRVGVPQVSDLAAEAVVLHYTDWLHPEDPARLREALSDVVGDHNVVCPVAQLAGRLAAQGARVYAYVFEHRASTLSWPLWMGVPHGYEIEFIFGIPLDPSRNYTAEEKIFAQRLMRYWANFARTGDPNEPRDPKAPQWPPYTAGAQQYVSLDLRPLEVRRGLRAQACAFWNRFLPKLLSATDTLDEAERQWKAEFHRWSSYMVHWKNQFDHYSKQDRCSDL
# [2] = molecular target: AChE in SH-SY5Y spheroids (Homo sapiens, UniProt P22303); assay: cell-based
# AChE in SH-SY5Y spheroids, sequence (P22303 32-614): as above
# [3] = molecular target: AChE in neural stem cells (Homo sapiens, UniProt P22303); assay: cell-based
# AChE in neural stem cells, sequence (P22303 32-614): as above
# recombinant human AChE [4] = molecular target: T1, recombinant human AChE; assay: biochemical
# [5] = molecular target: AChE in neural stem cell spheroids (Homo sapiens, UniProt P22303); assay: cell-based; conditions: for IC50: potency (IC50)
# AChE in neural stem cell spheroids, sequence (P22303 32-614): as above
# recombinant human AChE [6] = molecular target: T1, recombinant human AChE; assay: biochemical; format: biochemical; conditions: for AC50: AC50 (uM)
# recombinant human AChE [7] = molecular target: T1, recombinant human AChE; assay: biochemical; remark: listed apart in the source
# recombinant human AChE [8] = molecular target: T1, recombinant human AChE; assay: biochemical; remark: listed apart in the source
# AChE in SH-SY5Y cells = AChE in SH-SY5Y cells (Homo sapiens, UniProt P22303); assay: cell-based
# AChE in SH-SY5Y cells, sequence (P22303 32-614): as above
# [9] = potency (IC50), SH-SY5Y spheroids (24 h)
# [10] = potency (IC50), SH-SY5Y spheroids (48 h)
# [11] = potency (IC50), Enzyme with microsomes
# [12] = Neural stem cell spheroid (24 h)
# [13] = Neural stem cell spheroid (48 h)
# [14] = potency (IC50), SH-SY5Y cells monolayer
Structure (SMILES),CC-v2 (curve classes) (recombinant human AChE [1]),"IC50 [2, 9]","IC50 [2, 10]",IC50 [3],IC50 (recombinant human AChE [4]; [11]),"IC50 [5, 12]","IC50 [5, 13]",AC50 (recombinant human AChE [6]; activity_5),AC50 (recombinant human AChE [6]; activity_10),AC50 (recombinant human AChE [6]; activity_60),CC-v2 (curve classes) (recombinant human AChE [7]),CC-v2 (curve classes) (AChE in SH-SY5Y cells),IC50 (AChE in SH-SY5Y cells; IC50 (uM)),"IC50 (recombinant human AChE [7]; potency (IC50), Enzyme)",IC50 (recombinant human AChE [8]),IC50 (AChE in SH-SY5Y cells; [14]),Efficacy (recombinant human AChE [1]),IR or R (recombinant human AChE [6]),Efficacy (recombinant human AChE [7]),IC50 (recombinant human AChE [7]; IC50 (uM)),other results
CCOP(=S)(OCC)SCn1c(=O)oc2cc(Cl)ccc21 [Phosalone],-1.1,66.3 µM,50 µM,17.1 µM,2.91 µM,9.61 µM,10.5 µM,55.9 µM and 35.2 µM,55.9 µM and 62.7 µM and 49.8 µM,62.7 µM and 55.9 µM,4,-2.2,56.4 µM and 48.1 µM and 35.6 µM and 76.2 µM,,,,,,,,"IC50 (recombinant human AChE [4]; IC50 (uM)): 3.99 µM and 8.55 µM; AChE inhibition (result in words) (recombinant human AChE [7]): did not show effects; potency (IC50), Enzyme (recombinant human AChE [7]): Inactive; potency (IC50), Enzyme-based assay with heat-inactivated microsomes (recombinant human AChE [8]): Inactive; potency (IC50), SH-SY5Y cells monolayer (AChE in SH-SY5Y cells): Inactive"
CCOP(=S)(OCC)O/N=C(\C#N)c1ccccc1 [Phoxim],-1.1,13.3 µM,12.9 µM,3.18 µM,0.67 µM,0.33 µM,0.4 µM,27.3 µM and 24.3 µM,30.6 µM and 24.3 µM,21.7 µM and 19.3 µM and 24.3 µM,-2.2 and -2.1,-2.1,17.4 µM and 63.3 µM and 30.9 µM and 71 µM and 34.7 µM,23.4 µM,22 ± 4.1 µM,20.9 µM,,,,,
Cc1nc(N(C)C)nc(OC(=O)N(C)C)c1C [Pirimicarb],-2.2,7.09 ± 4.92 µM,,2.84 ± 0.65 µM,8.53 ± 0.55 µM,1.4 ± 0.16 µM,2.47 µM,49.8 µM and 62.7 µM and 22.2 µM,19.8 µM and 44.4 µM and 49.8 µM,19.8 µM and 5.59 µM and 9.93 µM,-1.1,-1.1,11.2 µM,12.7 ± 2.36 µM,8.21 ± 0.56 µM,7.42 ± 2.77 µM,-73.016,R,-85.325,,"IC50 ([2]; read-out: potency (IC50), SH-SY5Y spheroids (48 h)): 15.2 ± 0.99 µM"
CCCSP(=O)(OCC)Oc1ccc(Br)cc1Cl (stereo not drawn) [Profenofos],-1.1,2.57 ± 2.21 µM,2.89 ± 0.65 µM,1.05 ± 0.14 µM,3.43 µM,0.2 ± 0.09 µM,0.78 µM,10.9 µM and 17.2 µM and 15.3 µM,12.2 µM and 15.3 µM,6.85 µM and 7.69 µM and 13.7 µM,-1.1,-1.1,6.88 µM and 5.46 µM and 7.72 µM,3.85 µM,5.25 ± 0.34 µM,3.71 ± 0.24 µM,-79.632,,-92.505,3.87 µM,IC50 (recombinant human AChE [4]; IC50 (uM)): 2.74 µM
CNC(=O)Oc1cc(C)cc(C(C)C)c1 [Promecarb],-1.1,1.38 ± 1.23 µM,0.68 ± 0.09 µM,1.35 ± 0.18 µM,0.68 ± 0.11 µM,0.93 ± 0.07 µM,0.66 µM,1.98 µM and 1.25 µM,0.885 µM and 1.77 µM,0.703 µM and 0.498 µM and 1.11 µM,-1.1,-1.1,0.633 µM and 0.564 µM,0.48 ± 0.12 µM,0.61 ± 0.08 µM,0.88 ± 0.1 µM,-98.92,R,-99.272,,
CNC(=O)Oc1ccccc1OC(C)C [Propoxur],-1.1,3.55 ± 2.59 µM,2.45 ± 0.61 µM,17 ± 1.1 µM,1.76 µM,20.1 ± 4.2 µM,35.8 µM,22.2 µM and 14 µM and 6.27 µM,4.98 µM and 14 µM and 7.03 µM,1.77 µM and 1.11 µM and 2.5 µM,-1.1,-1.1,2.24 µM and 2 µM (2×) and 1.59 µM and 1.78 µM,1.55 ± 0.43 µM,1.91 ± 0.12 µM,3.05 ± 0.52 µM,,R,,,
CCOC(=O)c1cn2nc(OP(=S)(OCC)OCC)cc2nc1C [Pyrazophos],-1.1,29.7 µM,46.2 µM,16.4 µM,7.89 µM,2.46 µM,4.46 µM,,,55.9 µM and 62.7 µM,-3,-2.1,35.6 µM and 71 µM and 79.6 µM,49.8 µM,85.3 ± 5.56 µM,46.2 µM,-98.116,,-45.459,,
"O=C(c1ccc(OCCN2CCCCC2)cc1)c1c(-c2ccc(O)cc2)sc2cc(O)ccc12 [Raloxifene hydrochloride, reference compound]",-1.1,1.03 ± 0.78 µM,4.19 ± 0.94 µM,14.1 ± 1.61 µM,3.42 ± 0.58 µM,6.29 ± 0.72 µM,9.85 µM,1.57 µM and 2.22 µM and 1.11 µM,1.57 µM and 1.4 µM and 3.14 µM,1.25 µM and 1.11 µM and 2.22 µM,-1.1,-1.1 and -2.1,27.5 µM and 25.2 µM and 31.7 µM,2.14 ± 0.13 µM,3.43 ± 0.58 µM,4.29 ± 0.59 µM,,R,,,
"C=CC[N+]1([C@H]2C[C@H]3[C@@H]4CC[C@H]5C[C@H](OC(C)=O)[C@@H](N6CCCCC6)C[C@]5(C)[C@H]4CC[C@]3(C)[C@H]2OC(=O)CC)CCCCC1 [Rapacuronium bromide, reference compound]",4,8.24 µM,22.6 µM,5.27 µM,26.3 µM,3.64 µM,1.37 µM,21.7 µM and 19.3 µM,13.7 µM and 21.7 µM and 19.3 µM,21.7 µM and 38.5 µM and 19.3 µM,-2.2,-2.1,27.5 µM and 30.9 µM and 34.7 µM,22.6 µM,26.3 ± 1.71 µM,16 µM,0,R,-53.371,30.9 µM,
CC/N=c1\cc2oc3cc(NCC)c(C)cc3c(-c3ccccc3C(=O)OCC)c-2cc1C [Rhodamine 6G],-2.2 and -2.1,15.8 µM,9.25 µM,30.5 µM,41.3 µM,29.7 µM,40.3 µM,39.5 µM and 35.2 µM and 28 µM,39.5 µM and 49.8 µM and 35.2 µM,25 µM and 35.2 µM,-1.1,-1.1,8.94 µM and 6.31 µM and 7.1 µM and 7.07 µM and 7.96 µM and 8.91 µM,22.8 µM,41.2 ± 2.79 µM,12.4 µM,,R,,,
CCN1CCC2(CC1)COc1cc3c(cc12)N(C(=O)c1ccc(-c2ccc(-c4nnc(C)o4)cc2C)cc1)CC3.Cl [SB236057A],4,27.8 ± 11.7 µM,25.9 ± 2.98 µM,42.6 ± 2.88 µM,66 ± 15.1 µM,,4.03 µM,72.8 µM and 64.9 µM and 45.9 µM,51.5 µM and 91.6 µM,64.9 µM and 51.5 µM and 72.8 µM,-2.1,-2.1,29.3 µM and 23.2 µM,38.3 ± 6.89 µM,67.8 ± 8.64 µM,33.8 ± 2.29 µM,0,R,-86.107,32.8 µM,"potency (IC50), Neural stem cell spheroid (24 h) [5]: Inactive"
"Cc1nc2n(c(=O)c1CCN1CCC(C(=O)c3ccc(F)cc3)CC1)CCS2 [Setoperone, reference compound]",4,2.66 ± 1.88 µM,13.7 ± 1.58 µM,8.35 ± 1.14 µM,18.6 ± 1.21 µM,,,4.32 µM and 6.11 µM and 7.69 µM,4.85 µM and 7.69 µM and 10.9 µM,6.11 µM and 6.85 µM,-2.2,-2.1,13.8 µM and 12.3 µM and 15.5 µM,14.2 ± 0.96 µM,20.1 ± 1.36 µM,16 ± 1.08 µM,0,R,-57.619,30.9 µM,"potency (IC50), Neural stem cell spheroid (24 h) [5]: Inactive"
"CCOC(=O)c1ccc(NC(=O)CN2CCCCC2)cc1 [Sulcaine, reference compound]",4,12.9 µM,20.9 µM,19.6 µM,23.4 µM,15.6 µM,13.7 µM,24.3 µM and 27.3 µM,24.3 µM and 27.3 µM,21.7 µM and 27.3 µM,-2.2,-2.1,30.9 µM and 27.5 µM and 15.5 µM,20.1 µM,23.4 ± 1.53 µM,15.3 µM,0,R,-40.558,30.9 µM,
CCOP(=S)(OCC)OP(=S)(OCC)OCC [Sulfotepp],-1.1,15.3 ± 7.82 µM,4.12 ± 0.28 µM,1.25 ± 0.14 µM,7.89 µM,0.06 ± 0.01 µM,0.1 ± 0.02 µM,,,55.9 µM and 70.3 µM,-2.1,-1.1,5.02 µM and 8.18 µM and 2.52 µM and 5.16 µM and 2.24 µM and 2.59 µM,9.97 ± 1.14 µM,44.4 µM,0.96 ± 0.13 µM,,,,,
CCOP(=S)(Oc1cnc(C(C)(C)C)nc1)OC(C)C (stereo not drawn) [Tebupirimfos],-1.1,28.2 µM,24.2 µM,9.97 µM,4.29 µM,2.08 µM,3.7 µM,,,,-2.1,-2.1,39.9 µM and 35.6 µM,46.2 µM,42.8 ± 2.79 µM,20.1 µM,-95.03,,-96.664,,IC50 (recombinant human AChE [4]; IC50 (uM)): 10 µM; AC50 (recombinant human AChE [6]): 70.3 µM and 55.9 µM and 49.8 µM; IC50 (recombinant human AChE [7]; read-out: IC50): 63.3 µM
